Measured values: patent US20240166630A1, “INDOLE DERIVATIVES AS SEROTONERGIC AGENTS USEFUL FOR THE TREATMENT OF DISORDERS RELATED THERETO” (Mindset Pharma Inc., priority 2021, published 2024)
“And” between values parts separate entries of the source, which are not always exact repeats. Identical values can stand only once. Like-named read-outs stand apart in the source and are kept apart here.

Key:
[1] = In vivo pharmacokinetics in male Sprague Dawley rats; set-up: species or system rat; details: 0.992 mg/kg s.c.; for AUC(0-t): read-out: AUC0-tlast
Source text: Example 13 (I-B-1): In Vivo Assessment of the Pharmacokinetics in Mice and Rats
(§1) 5. PK Analysis • i. Analysis software: Phoenix® WinNonlin® 8.2 (Pharsight, Certara, Mountainview, CA) • ii. Analysis methods: non-compartmental analysis, linear up/log down trapezoidal rule • iii. PK parameters: C0, t1/2, AUC0-tlast. AUC0-∞, CL, Vss, MRT, tmax(po), Cmax(po), F, as appropriate

[2] = In vivo pharmacokinetics in male C57BL/6 mice; set-up: species or system mouse
Procedure: Animals: Male C57BL/6 mice (25-30 g) from Charles River Labs were acclimatized for a minimum of 5 days prior to dosing. Body weights were recorded on the day of dosing.
Food restriction: Animals dosed p.o. were deprived of food overnight and fed ˜2 h following dosing.
Dosing: Formulations were administered intravenously (i.v.) via the tail vein or orally (p.o.) by gavage with disposable feeding needles.
Sample collection: Serial blood samples was collected via tail snip. Terminal blood samples was collected under isoflurane anesthesia by cardiac puncture.
Sample processing/storage: All blood samples were transferred into K2EDTA tubes on wet ice and centrifuged within 5 min (3200× g for 5 min at 4° C.) to obtain plasma. Plasma was stored at −80° C. until analysis.
Instrumentation: AB Sciex QTRAP 4000 or 6500 MS/MS system equipped with an LC system with a binary pump, a solvent degasser, a thermostatted column compartment and a multiplate autosampler.
as §1

[3] = 9.92 mg/kg i.v., individual animals M10-M12
[4] = 9.92 mg/kg p.o., individual animals M13-M15
[5] = 9.92 mg/kg s.c., individual animals M16-M18

Q: What does the source list for `[2H]C([2H])(c1c[nH]c2ccccc12)[C@H]1CCCN1C([2H])([2H])[2H]` [I-B-1, (R)-3-((1-(methyl-d3)pyrrolidin-2-yl)methyl-d2)-1H-indole]?
A: F ([1]; Mean ± SD): 133 ± 10.1%; AUC0-tlast ([1]; individual animals): 137 ng·h/mL and 133 ng·h/mL; AUC(0-inf) ([1]; individual animals): 154 ng·h/mL and 133 ng·h/mL; Apparent t1/2 ([1]; individual animals): 0.990 h and 26.6^a h and 1.18 h; Cmax ([1]; individual animals): 140 ng/mL and 137 ng/mL and 64.6 ng/mL; F ([1]; individual animals): 132% and 144% and 124%; MRT0-inf ([1]; individual animals): 1.07 h and 9.03 h and 1.40 h; tmax ([1]; individual animals): 0.0833 h and 1.00 h; AUC(0-inf) ([1]; male, Sprague Dawley, rat, plasma, sc, 0.992 mg/kg, Mean ± SD, read-out: AUC0-inf): 143 ± 10.8 ng·h/mL; AUC(0-t) ([1]; male, Sprague Dawley, rat, plasma, sc, 0.992 mg/kg, Mean ± SD): 136 ± 3.91 ng·h/mL; Cmax ([1]; male, Sprague Dawley, rat, plasma, sc, 0.992 mg/kg, Mean ± SD, read-out: Cmax): 114 ± 42.7 ng/mL; MRT inf ([1]; male, Sprague Dawley, rat, plasma, sc, 0.992 mg/kg, Mean ± SD, read-out: MRT0-inf): 3.83 ± 4.5 h; tmax ([1]; male, Sprague Dawley, rat, plasma, sc, 0.992 mg/kg, Mean ± SD, read-out: tmax): 0.25 h; AUC(0-inf) ([1]; male, Sprague Dawley, rat, plasma, sc, 0.992 mg/kg, individual animals, read-out: AUC0-inf): 141 ng·h/mL; AUC(0-t) ([1]; male, Sprague Dawley, rat, plasma, sc, 0.992 mg/kg, individual animals): 140 ng·h/mL; half-life ([1]; male, Sprague Dawley, rat, plasma, sc, 0.992 mg/kg, mean (n = 2), outlier excluded, read-out: Apparent t1/2 (converted)): 1.09 h; AUC0-tlast [2, 3]: 3708 ng·h/mL and 4440 ng·h/mL; AUC(0-inf) [2, 3]: 3709 ng·h/mL and 4441 ng·h/mL; Apparent t1/2 [2, 3]: 2.16 h and 2.05 h; C0 [2, 3]: 3473 ng/mL and 3356 ng/mL; CL [2, 3]: 44.58 mL/min/kg and 37.23 mL/min/kg; MRT0-inf [2, 3]: 2.46 h and 2.57 h; Vss [2, 3]: 6.59 L/kg and 5.751 L/kg; F ([2]; 9.92 mg/kg p.o., Mean ± SD): 58.2 ± 18.4%; AUC0-tlast [2, 4]: 2782 ng·h/mL and 2260 ng·h/mL; AUC(0-inf) [2, 4]: 3099 ng·h/mL; Cmax [2, 4]: 516 ng/mL and 342 ng/mL; MRT0-inf [2, 4]: 8.54 h; tmax [2, 4]: 1.00 h and 0.500 h; F ([2]; 9.92 mg/kg p.o., individual animals M13-M15, for M15 AUC0-tlast used): 40.8% and 77.5% and 56.5%; Apparent t1/2 ([2]; 9.92 mg/kg p.o., individual animals, estimate may not be accurate): 9.46 h; F ([2]; 9.92 mg/kg s.c., Mean ± SD): 67.9 ± 6.24%; AUC0-tlast [2, 5]: 2833 ng·h/mL and 2429 ng·h/mL; AUC(0-inf) [2, 5]: 2834 ng·h/mL and 2431 ng·h/mL; Apparent t1/2 [2, 5]: 2.24 h and 2.56 h; Cmax [2, 5]: 1090 ng/mL and 950 ng/mL; F [2, 5]: 72.2% and 70.9% and 60.8%; MRT0-inf [2, 5]: 2.58 h; tmax [2, 5]: 0.500 h
